Consider one molecule from US20230103549A1, “OVERLAPPING THERAPEUTIC STRATEGIES FOR CYSTINOSIS TREATMENT AND COSMETIC SKIN DARKENING” (Whitehead Institute for Biomedical Research, priority 2019, published 2023).

One test addresses T1, MFSD12 (Homo sapiens, UniProt Q6NUT3).
T1 construct: isolate large quantities of lysosomes from wild-type and MFSD12 knock-out HEK-293T cells; endogenous in cells; host or cells: suspension-adapted HEK-293T cells; lysosomes purified by differential and OptiPrep gradient centrifugation
Nature of the test: Cysteine uptake assay into isolated lysosomes. The format is biochemical. Conditions: 500 μM unlabeled cysteine; lysosomes from HEK-293T cells; 15-minute transport assay. As for the experimental part: Lysosomal purification protocols were adapted from previous protocols (Graham, 2001). 500 million suspension-adapted HEK-293T cells were spun down, washed in ice-cold PBS, and resuspended in 15 mL homogenization buffer (250 mM sucrose; 20 mM HEPES, pH 7.4; 1 mM EDTA) supplemented with protease inhibitor tablets (Roche). Cells were dounced 10 times in a lose fitting glass dounce and the resulting lysate was centrifuged at 1,500×g for 10 minutes at 4° C. After transferring the supernatant, 15 mL homogenization buffer was used to resuspend the pellet, and douncing and centrifugation were repeated. Supernatants from three successive rounds of homogenization and centrifugation were pooled and centrifuged a final time before transferring ‘post-nuclear supernatant’ to the subsequent step. ‘Post-nuclear supernatant’ was centrifuged at 20,000×g for 10 minutes at 4° C. to pellet organelles. To further wash organelles, the pellet was resuspended in 45 mL homogenization buffer and spun again at 20,000×g for 10 minutes at 4° C. The resulting pellet or ‘light mitochondrial fraction’ was resuspended in 9% OptiPrep (Thermo Fisher) prepared in Dilution Buffer (250 mM sucrose; 40 mM HEPES, pH 7.4; 2 mM EDTA) and overlaid on top of a discontinuous gradient of 18, 16, 14, 12, and 10% OptiPrep prepared in Dilution Buffer. […]

In test [1] the target is T2, plasma membrane-localized MFSD12 (Homo sapiens, UniProt Q6NUT3, DEL167-169/L256A/L257A/Y182H).
T2 construct: expressed in transfected cells; host or cells: HEK-293T cells transiently transfected with the pRK5-HA-MFSD12 LL253-254AA plasmid (PEI)
Kind of test: Plasma membrane cellular cysteine uptake assay (MFSD12^PM). It is filed as cell-based. The settings on record: HEK-293T cells expressing MFSD12^PM; 500 μM cold cysteine for competition. As for the experimental part: 3 million HEK-293T cells were plated in 10 cm dishes. Cells were transfected with 3 μg of plasmid with PEI (3 μg per 1 μg plasmid) and scraped 48 hours post-transfection into ice cold KPBS. After washing twice, cells were resuspended in LysoBuffer supplemented with 2.5 μM Erastin (MilliporeSigma), 4 mM leucine, and 3 mM serine. Assays were started with the addition of cold cysteine (10 μM for transport conditions and 500 μM for competition) and 50 μCi/mL (<100 pM) [^35S]-cysteine. Samples were incubated at 30° C. and aliquots were taken at indicated time points. Aliquoted cells were harvested by centrifugation at 1,000×g for 30 seconds at 4° C. and washed twice in ice-cold PBS. Cell pellets were resuspended in water before mixing into scintillation fluid and measuring scintillation counts (TriCarb T9000TR, Perkin-Elmer).

T2 sequence (Q6NUT3 with tags, fused parts or gaps DEL167-169/Y182H/L256A/L257A): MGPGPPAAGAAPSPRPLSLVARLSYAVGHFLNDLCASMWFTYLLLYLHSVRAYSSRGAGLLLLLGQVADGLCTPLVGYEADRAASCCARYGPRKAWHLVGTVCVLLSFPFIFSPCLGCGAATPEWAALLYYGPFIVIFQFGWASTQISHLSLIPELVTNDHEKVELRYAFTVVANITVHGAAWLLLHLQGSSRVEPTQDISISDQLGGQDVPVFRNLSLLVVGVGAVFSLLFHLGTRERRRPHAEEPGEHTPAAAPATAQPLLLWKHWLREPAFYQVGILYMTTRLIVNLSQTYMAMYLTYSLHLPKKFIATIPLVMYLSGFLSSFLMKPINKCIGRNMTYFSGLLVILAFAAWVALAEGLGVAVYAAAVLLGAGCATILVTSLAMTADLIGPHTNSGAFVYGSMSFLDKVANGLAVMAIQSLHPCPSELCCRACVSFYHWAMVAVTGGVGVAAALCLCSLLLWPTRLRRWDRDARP
T1 sequence (Q6NUT3 whole entry): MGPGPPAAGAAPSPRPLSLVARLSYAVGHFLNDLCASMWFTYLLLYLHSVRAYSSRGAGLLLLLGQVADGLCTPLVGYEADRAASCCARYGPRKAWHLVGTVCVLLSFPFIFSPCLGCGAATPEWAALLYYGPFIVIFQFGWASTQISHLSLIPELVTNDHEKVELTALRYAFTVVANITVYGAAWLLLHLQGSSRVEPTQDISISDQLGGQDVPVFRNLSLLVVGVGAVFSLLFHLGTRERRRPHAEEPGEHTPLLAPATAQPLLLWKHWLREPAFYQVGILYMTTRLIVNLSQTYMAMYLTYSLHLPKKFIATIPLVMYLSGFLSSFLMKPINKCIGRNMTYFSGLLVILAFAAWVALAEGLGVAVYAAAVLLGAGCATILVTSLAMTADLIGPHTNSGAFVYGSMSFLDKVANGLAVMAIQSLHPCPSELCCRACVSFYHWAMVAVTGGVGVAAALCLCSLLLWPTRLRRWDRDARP

In the case of `N[C@@H](CS)C(=O)O` [cysteine], on MFSD12, the “competition of [35S]-cysteine signal in lysosomes” value was “reduce the [^35S] signal in lysosomes having MFSD12 to the same level as those in lysosomes lacking it”. Further, the “competition of MFSD12-induced [35S]-cysteine transport” value in test [1] was “completely competed”.
